# Experimental data taken from ChEMBL document CHEMBL3414447, “Structure-guided design of a series of MCL-1 inhibitors with high affinity and selectivity” (J Med Chem, 2015).
# The source made the active and inactive calls. The rule behind the calls is not given here.
# Key:
# [1] = target: T1, Induced myeloid leukemia cell differentiation protein Mcl-1 (Homo sapiens, UniProt Q07820)
# Description: (§1) Displacement of fluorescent labeled NOXA peptide from recombinant human MCL1 by fluorescence polarization assay
# [2] = target: T1, Induced myeloid leukemia cell differentiation protein Mcl-1; remark: listed apart in the source
# Description: Displacement of fluorescent labeled NOXA peptide from recombinant human MCL1 by fluorescence polarization assay in presence of 1% human serum
# [3] = target: T1, Induced myeloid leukemia cell differentiation protein Mcl-1; assay: Ratio of Ki(app) for MCL1 (unknown origin) by TR-FRET assay in presence of 10% human serum to Ki(app) for MCL1 (unknown origin) by TR-FRET assay in absence of 10% human serum
# [4] = target: T1, Induced myeloid leukemia cell differentiation protein Mcl-1; remark: listed apart in the source
# [5] = target: T1, Induced myeloid leukemia cell differentiation protein Mcl-1; remark: listed apart in the source
# [6] = target: T2, Apoptosis regulator Bcl-2 (Homo sapiens, UniProt P10415); assay: Inhibition of BCL-2 (unknown origin) by fluorescence polarization assay
# [7] = target: T1, Induced myeloid leukemia cell differentiation protein Mcl-1; assay: Displacement of fluorescent labeled NOXA peptide from recombinant MCL1 (unknown origin) after 15 mins by fluorescence polarization assay
# Bcl-2-like protein 1 [8] = target: T3, Bcl-2-like protein 1 (Homo sapiens, UniProt Q07817); assay: Inhibition of BCL-XL (unknown origin) by fluorescence polarization assay
# [9] = target: T1, Induced myeloid leukemia cell differentiation protein Mcl-1; remark: listed apart in the source
# Description: as §1
# Albumin = Albumin (Homo sapiens, UniProt P02768)
# Description: Displacement of probe S1 from recombinant human serum albumin domain 3 after 5 mins by fluorescence polarization assay
# [10] = target: T1, Induced myeloid leukemia cell differentiation protein Mcl-1; assay: Inhibition of MCL-1 in human H929 cells assessed as loss in cell viability after 4 hrs by CellTiter-Glo assay in presence of 0.1 to 10% fetal bovine serum; type: cell-based
# [11] = target: T2, Apoptosis regulator Bcl-2
# Bcl-2-like protein 1 [12] = target: T3, Bcl-2-like protein 1
# [13] = Fraction unbound in human plasma after 4.5 hrs by equilibrium dialysis method; type: ADME, cell-free
# [14] = target: T1, Induced myeloid leukemia cell differentiation protein Mcl-1; assay: Inhibition of MCL-1 in human BXPC3 cells assessed as reduction of navitoclax EC50 at 20 uM after 72 hrs by CellTiter-Glo assay in presence of 10% fetal bovine serum; type: cell-based; settings: BXPC-3
# Bcl-2-like protein 2 = target: T4, Bcl-2-like protein 2 (Homo sapiens, UniProt Q92843); assay: Inhibition of BCL-W (unknown origin) after 1 hr by TR-FRET assay
# T4 sequence (Q92843 whole entry): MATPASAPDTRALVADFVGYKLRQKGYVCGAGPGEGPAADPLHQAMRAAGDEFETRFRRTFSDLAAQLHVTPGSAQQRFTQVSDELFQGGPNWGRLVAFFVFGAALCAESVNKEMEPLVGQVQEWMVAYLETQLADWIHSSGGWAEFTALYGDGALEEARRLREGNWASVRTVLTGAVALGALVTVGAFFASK
# [15] = target: T1, Induced myeloid leukemia cell differentiation protein Mcl-1; assay: Inhibition of MCL-1 in human H929 cells assessed as induction of caspase3/7 activation after 4 hrs by caspase-Glo 3/7 assay in presence of 0.1 to 10% fetal bovine serum; type: cell-based
# Bcl-2-related protein A1 = target: T5, Bcl-2-related protein A1 (Homo sapiens, UniProt Q16548); assay: Inhibition of BCL2-A1 (unknown origin) after 1 hr by TR-FRET assay
# T5 sequence (Q16548 whole entry): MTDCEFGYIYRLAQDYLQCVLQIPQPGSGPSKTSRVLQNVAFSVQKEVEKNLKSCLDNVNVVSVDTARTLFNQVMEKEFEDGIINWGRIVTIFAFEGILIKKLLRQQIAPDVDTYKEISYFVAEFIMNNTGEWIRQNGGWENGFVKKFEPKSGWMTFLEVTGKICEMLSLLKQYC
# T1 sequence (Q07820 whole entry): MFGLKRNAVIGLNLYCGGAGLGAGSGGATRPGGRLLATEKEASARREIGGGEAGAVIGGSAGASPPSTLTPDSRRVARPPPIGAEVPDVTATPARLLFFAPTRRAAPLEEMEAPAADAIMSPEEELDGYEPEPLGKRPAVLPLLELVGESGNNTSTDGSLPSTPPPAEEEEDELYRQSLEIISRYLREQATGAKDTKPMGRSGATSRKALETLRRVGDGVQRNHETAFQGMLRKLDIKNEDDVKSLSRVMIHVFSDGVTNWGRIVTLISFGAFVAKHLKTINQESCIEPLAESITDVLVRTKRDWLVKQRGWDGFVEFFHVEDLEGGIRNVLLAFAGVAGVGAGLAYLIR
# Sequence of Albumin (P02768 whole entry): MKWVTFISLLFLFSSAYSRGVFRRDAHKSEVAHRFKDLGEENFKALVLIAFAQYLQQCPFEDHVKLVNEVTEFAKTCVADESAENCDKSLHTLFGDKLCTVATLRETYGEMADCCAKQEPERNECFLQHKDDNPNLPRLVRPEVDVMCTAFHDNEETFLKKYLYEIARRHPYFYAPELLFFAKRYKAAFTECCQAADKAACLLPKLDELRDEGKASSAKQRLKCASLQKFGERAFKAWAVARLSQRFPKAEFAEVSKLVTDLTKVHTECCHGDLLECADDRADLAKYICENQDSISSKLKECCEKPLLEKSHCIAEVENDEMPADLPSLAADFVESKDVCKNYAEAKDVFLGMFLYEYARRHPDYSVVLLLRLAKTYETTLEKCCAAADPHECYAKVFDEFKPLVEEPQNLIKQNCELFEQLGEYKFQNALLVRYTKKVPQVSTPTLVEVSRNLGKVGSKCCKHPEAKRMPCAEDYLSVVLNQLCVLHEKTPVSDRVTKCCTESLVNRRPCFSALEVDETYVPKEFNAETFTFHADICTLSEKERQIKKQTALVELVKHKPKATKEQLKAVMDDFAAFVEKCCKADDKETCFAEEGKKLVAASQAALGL
# T2 sequence (P10415 whole entry): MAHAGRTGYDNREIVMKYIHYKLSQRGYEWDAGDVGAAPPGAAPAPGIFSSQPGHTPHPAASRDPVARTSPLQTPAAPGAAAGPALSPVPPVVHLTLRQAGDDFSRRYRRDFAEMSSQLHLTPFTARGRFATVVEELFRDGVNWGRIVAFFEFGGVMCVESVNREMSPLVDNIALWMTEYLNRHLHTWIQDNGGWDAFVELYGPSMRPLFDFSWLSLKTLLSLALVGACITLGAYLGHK
# T3 sequence (Q07817 whole entry): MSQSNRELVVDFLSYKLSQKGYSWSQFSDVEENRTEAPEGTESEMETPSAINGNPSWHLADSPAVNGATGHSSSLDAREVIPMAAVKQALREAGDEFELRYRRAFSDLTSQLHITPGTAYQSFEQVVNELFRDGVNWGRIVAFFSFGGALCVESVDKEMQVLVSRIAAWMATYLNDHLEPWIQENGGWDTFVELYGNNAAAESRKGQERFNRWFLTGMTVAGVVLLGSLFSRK
compound,measurement,setting,value
Cc1cccc(-c2cccc3c(CCCOc4cccc5ccccc45)c(C(=O)O)[nH]c23)c1,Ki,[1],160 nM
same,Ki,[2],8200 nM
O=C(O)c1[nH]c2c(-c3ccccc3)cccc2c1CCCOc1cccc2ccccc12,Ki,[1],130 nM
same,Ki,[2],5300 nM
CC(=O)N1CCN(c2ccc(OCc3c(-c4cccc5c(CCCOc6cccc7ccccc67)c(C(=O)O)n(CCN6CCOCC6)c45)c(C)nn3C)cc2)CC1,Ratio Ki(app),[3],10
same,Ki,[4],2.7 nM
same,Ki,[5],0.24 nM
CCS(=O)(=O)N1CCN(c2ccc(OCc3c(-c4cccc5c(CCCOc6cccc7ccccc67)c(C(=O)O)n(CCN6CCOCC6)c45)c(C)nn3C)cc2)CC1,Ki,[4],4.9 nM
same,Ki,[5],0.2 nM
Cc1nn(C)c(COc2ccccc2)c1-c1cccc2c(CCCOc3cccc4ccccc34)c(C(=O)O)n(CCN3CCOCC3)c12,Ki,[4],114 nM
same,Ki,[5],2.3 nM
O=C(O)c1[nH]c2ccccc2c1CCCCC1CCCCC1,Ki,[6],> 10000 nM
same,Ki,[7],4400 nM
same,Ki,Bcl-2-like protein 1 [8],> 10000 nM
O=C(O)c1[nH]c2ccccc2c1CCCO,inhibition,[9],inactive
same,Ki,Albumin,> 100000 nM
CCOC(=O)c1c(CCCOc2cccc3ccccc23)c2cccc(-c3c(C)nn(C)c3COc3ccc(N4CCNCC4)cc3)c2n1CCN1CCOCC1,Ki,[4],12 nM
same,Ki,[5],2 nM
Cc1nn(C)c(C)c1-c1cccc2c(CCCOc3cccc4ccccc34)c(C(=O)O)n(CCN3CCOCC3)c12,Ki,[1],< 10 nM
same,Ki,Albumin,1450 nM
same,Ki,[4],35 nM
same,Ki,[2],4 nM
same,Ki,[5],1.5 nM
Cc1nn(C)c(COc2ccc(N3CCN(S(=O)(=O)N4CCOCC4)CC3)cc2)c1-c1cccc2c(CCCOc3cccc4ccccc34)c(C(=O)O)n(CCN3CCOCC3)c12,Ki,[4],12.3 nM
same,Ki,[5],0.48 nM
Cc1ccccc1-c1cccc2c(CCCO)c(C(=O)O)[nH]c12,inhibition,[9],inactive
Cc1nn(C)c(COc2ccc(N3CCN(S(C)(=O)=O)CC3)cc2)c1-c1cccc2c(CCCOc3cccc4ccccc34)c(C(=O)O)n(CCN3CCOCC3)c12,inhibition,[10],Active
same,Ki,[11],> 660 nM
same,Ki,Bcl-2-like protein 1 [12],> 660 nM
same,fraction unbound at 4.5 h,[13],< 0.01
same,fold change (FC),[14],45
same,Ki,Bcl-2-like protein 2,> 660 nM
same,inhibition,[15],Active
same,Ki,Bcl-2-related protein A1,> 660 nM
Cc1ccc(-c2cccc3c(CCCOc4cccc5ccccc45)c(C(=O)O)[nH]c23)cc1,Ki,[1],150 nM
same,Ki,[2],9100 nM
Cc1nn(C)c(COc2ccc(N3CCN(S(=O)(=O)N(C)C)CC3)cc2)c1-c1cccc2c(CCCOc3cccc4ccccc34)c(C(=O)O)n(CCN3CCOCC3)c12,Ki,[4],7.9 nM
same,Ki,[5],0.45 nM
Cc1ccccc1-c1cccc2c(CCCOc3cccc4ccccc34)c(C(=O)O)[nH]c12,Ki,[1],35 nM
same,Ki,Albumin,< 30 nM
same,Ki,[2],8600 nM
CC(=O)N1CCN(c2ccc(OCc3nn(C)c(C)c3-c3cccc4c(CCCOc5cccc6ccccc56)c(C(=O)O)n(Cc5cccnc5)c34)cc2)CC1,Ki,[4],98 nM
same,Ki,[5],1.8 nM
CCCS(=O)(=O)N1CCN(c2ccc(OCc3c(-c4cccc5c(CCCOc6cccc7ccccc67)c(C(=O)O)n(CCN6CCOCC6)c45)c(C)nn3C)cc2)CC1,Ki,[4],8.8 nM
same,Ki,[5],0.31 nM
